The values below come from patent US20230357253A1, “AGONISTS OF STIMULATOR OF INTERFERON GENES STING” (THE SCRIPPS RESEARCH INSTITUTE, priority 2020, published 2023).

Molecules are shown by their SMILES.

The EC50 is the concentration at which the effect is half-maximal. Broadly, the IC50 is the concentration that gives 50% inhibition.

The subject of one test is THP-1 Lucia ISG cells. Kind of test: ISRE-luciferase assay (ISG-LUC activation). Type of test: cell-based. The conditions noted are these: Homo sapiens, THP1-Lucia ISG, 24 hours, luciferase reporter. How it is done:
ISRE-luciferase assay. THP-1 Lucia ISG cells were resuspended in low-serum growth media (2% FBS) at a density of 5×10^5 cells/ml and treated with test article or vehicle (DMSO). 50 μL of cells were seeded into each well of a 384-well white greiner plates and incubated for 24 hours. To evaluate expression of the luciferase reporter, 30 μl of Quanti-luc (Invivogen) detection reagent was added to each well and luminescence was read using an Envision plate reader (Perkin Elmer) set with an integration time of 0.1 seconds. For each cell type, luminescence signals for test article samples were normalized to vehicle-treated samples and reported as relative light units (RLU).
In general terms: Reporter assays use an easily measured gene product as a stand-in for the process of interest.

The next test addresses human STING protein (Homo sapiens (Human), UniProt Q86WV6). The test can be described thus: WT STING binding assay (HTRF, competition with labeled 2′3′cGAMP). The conditions noted are these: recombinant 6×His-tagged human STING, three hours at room temperature. How it is done:
WT STING binding assay (Cisbio, Catalog #64BDSTGPEH). […] Upon proximity of the two dyes, the excitation of the donor by the flash lamp on the PHERAstar FSX plate reader triggers a Fluorescence Resonance Energy Transfer (FRET) towards the acceptor, which in turn fluoresces at 665 nm. To assess the ability of the synthetic small molecule STING ligands to bind to human STING, a competitive assay format was applied. A 10-point titration of each of the synthetic ligands in 5 uL were transferred into a 384 well plate, followed by 20 uL of assay buffer containing the 6×His-tagged human STING protein and labeled 2′3′cGAMP ligand and incubated for three hours at room temperature. The raw values obtained from the PHERAstar were used to calculate the reported IC50 values (the signal is inversely proportional to the binding of the synthetic ligand) through curve fitting in Genedata. The percent inhibition was calculated based upon the maximal amount of binding by synthetic compound versus the maximum binding of unlabeled 2′3′ cGAMP which was used as a control in each assay.
(In general: In TR-FRET formats the signal depends on donor and acceptor labels being close together.)

human STING protein, sequence (Q86WV6 whole entry): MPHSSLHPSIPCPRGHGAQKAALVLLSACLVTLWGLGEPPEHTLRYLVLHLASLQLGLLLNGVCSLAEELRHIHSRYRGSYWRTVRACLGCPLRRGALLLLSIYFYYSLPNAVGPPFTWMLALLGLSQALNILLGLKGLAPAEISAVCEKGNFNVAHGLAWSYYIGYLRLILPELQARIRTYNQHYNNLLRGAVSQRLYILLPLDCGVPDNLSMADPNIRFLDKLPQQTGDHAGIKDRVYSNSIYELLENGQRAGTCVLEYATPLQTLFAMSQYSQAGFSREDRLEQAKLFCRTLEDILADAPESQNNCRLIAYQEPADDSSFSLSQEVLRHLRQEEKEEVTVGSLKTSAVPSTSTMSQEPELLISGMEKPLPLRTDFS

As for `COc1cc(C(=O)O)c(NC(=O)c2ccc(-n3ccnc3)nn2)cc1OCCCCOc1cc(NC(=O)c2ccc(-n3ccnc3)nn2)c(C(=O)O)cc1F` [Compound 58], the EC50 in the test with THP-1 Lucia ISG cells lay within 500 to 5000 nM. In addition, the half-maximal inhibitory concentration (IC50) on human STING protein was 100 to 1000 nM.
In turn, `O=C(Nc1cc(CCCc2cc(NC(=O)c3ccc(-n4ccnc4)nn3)c(C(=O)O)nc2Cl)c(F)cc1C(=O)O)c1ccc(-n2ccnc2)nn1` [Compound 52] had a half-maximal effective concentration (EC50) in the test with THP-1 Lucia ISG cells of 50 to 500 nM. Further, the IC50 on human STING protein was 10 to 100 nM.
`O=C(Nc1cc(OCCCCOc2cc(NC(=O)c3ccc(-n4ccnc4)nn3)c(C(=O)O)cc2F)c(F)cc1C(=O)O)c1ccc(O)nn1` [Compound 18]: the EC50 with THP-1 Lucia ISG cells is greater than 5000 nM. For the same molecule, the concentration for half-maximal inhibition (IC50) on human STING protein lay in the range of 100 to 1000 nM.
Molecule `O=C(Nc1cc(CCCc2ccc(C(=O)O)c(NC(=O)c3ccc4nnnn4n3)c2)c(F)cc1C(=O)O)c1ccc(-n2ccnc2)nn1` [Compound 75] came in with a concentration for a half-maximal effect (EC50) with THP-1 Lucia ISG cells of 500 to 5000 nM. For the same molecule, the 50% inhibitory concentration (IC50) at human STING protein lay in the range of 100 to 1000 nM.
Turning to `COc1cc(C(=O)O)c(NC(=O)c2ccc3nnnn3n2)cc1CCCc1cnc(C(=O)O)c(NC(=O)c2ccc(-n3ccnc3)nn2)c1` [Compound 85], the EC50 in the test with THP-1 Lucia ISG cells was greater than 5000 nM. In addition, the half-inhibitory concentration (IC50) on human STING protein was 100 to 1000 nM.
For `O=C(Nc1cc(OCCCCOc2cc(NC(=O)c3ccc4nnnn4n3)c(C(=O)O)cc2F)c(F)cc1C(=O)O)c1ccc2nnnn2n1` [Compound 12], in that order: 50 to 500 nM and 100 to 1000 nM.
With `O=C(Nc1cc(CCOc2cc(NC(=O)c3ccc4nnnn4n3)c(C(=O)O)cc2F)c(F)cc1C(=O)O)c1ccc(-n2ccnc2)nn1` [Compound 2, 2-(6-(1H-imidazol-1-yl)pyridazine-3-carboxamido)-4-(2-(4-carboxy-2-fluoro-5-(tetrazolo[1,5-b]pyridazine-6-carboxamido)phenoxy)ethyl)-5-fluorobenzoic acid], the concentration giving a half-maximal response (EC50) with THP-1 Lucia ISG cells was less than 50 nM. In addition, on human STING protein, the concentration for half-maximal inhibition (IC50) was 10 to 100 nM.
For `O=C(Nc1cc(CCCc2cc(NC(=O)c3cc4nnnn4nn3)c(C(=O)O)cc2F)c(F)cc1C(=O)O)c1ccc(-c2cn[nH]c2)nn1` [Compound 192], in that order: 500 to 5000 nM and 10 to 100 nM.
For `COc1cc(C(=O)O)c(NC(=O)c2ccc3nnnn3n2)cc1OCCc1ccc(C(=O)O)c(NC(=O)c2ccc(-n3ccnc3)nn2)c1` [Compound 91] the same measures were greater than 5000 nM and 100 to 1000 nM.
As to `COc1cc(C(=O)O)c(NC(=O)c2ccc(-n3ccnc3)nn2)cc1CCOc1cc(NC(=O)c2ccc3nnnn3n2)c(C(=O)O)cc1F` [Compound 99], the EC50 in the test with THP-1 Lucia ISG cells lay in the range of 500 to 5000 nM. On human STING protein, the IC50 lay within 100 to 1000 nM.
For `COc1cc(C(=O)O)c(NC(=O)c2ccc(-n3ccnc3)nn2)cc1CSCc1cc(NC(=O)c2ccc(-n3ccnc3)nn2)c(C(=O)O)cc1F` [Compound 124], in that order: 50 to 500 nM and 10 to 100 nM.
Regarding `COc1cc(C(=O)O)c(NC(=O)c2ccc(-n3ccnc3)nn2)cc1OCCc1cc(NC(=O)c2ccc3nnnn3n2)c(C(=O)O)cc1Cl` [Compound 109], in the test with THP-1 Lucia ISG cells, the EC50 fell in the range of 500 to 5000 nM. Also, at human STING protein, the IC50 was in the range of 100 to 1000 nM.
For `O=C(Nc1cc(CCOc2cc(NC(=O)c3ccc4nnnn4n3)c(C(=O)O)cc2Cl)ccc1C(=O)O)c1ccc(-n2ccnc2)nn1` [Compound 104], in that order: 50 to 500 nM and 10 to 100 nM.
On to `O=C(Nc1cc(CCCc2cnc(C(=O)O)c(NC(=O)c3ccc4nnnn4n3)c2)c(F)cc1C(=O)O)c1ccc(-n2ccnc2)nn1` [Compound 112], for which the EC50 in the test on THP-1 Lucia ISG cells lay in the range of 500 to 5000 nM. In addition, on human STING protein, the concentration for half-maximal inhibition (IC50) was 10 to 100 nM.
For `COc1cc(C(=O)O)c(NC(=O)c2ccc(-n3ccnc3)nn2)cc1OCCCCOc1ccc(C(=O)O)c(NC(=O)c2ccc(-n3ccnc3)nn2)c1` [Compound 49], in that order: greater than 5000 nM and 100 to 1000 nM.
`O=C(Nc1cc(CCCc2cnc(C(=O)O)c(NC(=O)c3ccc(-n4ccnc4)nn3)c2)c(F)cc1C(=O)O)c1ccc(-n2ccnc2)nn1` [Compound 65]: the half-maximal effective concentration (EC50) in the test on THP-1 Lucia ISG cells was 500 to 5000 nM. For the same molecule, the IC50 on human STING protein is 10 to 100 nM.
Molecule `O=C(Nc1cc(CCOc2c(F)cc(C(=O)O)c(NC(=O)c3ccc(-n4ccnc4)nn3)c2F)c(F)cc1C(=O)O)c1ccc(-n2ccnc2)nn1` [Compound 123] showed a concentration for a half-maximal effect (EC50) in the test with THP-1 Lucia ISG cells of 50 to 500 nM. At human STING protein, the IC50 fell in the range of 100 to 1000 nM.
As to `O=C(Nc1cc(CCOc2cc(NC(=O)c3ccc(-n4ccnc4)nn3)c(C(=O)O)cc2F)c(F)cc1C(=O)O)c1ccc(-n2ccnc2)nn1` [Compound 119], the EC50 with THP-1 Lucia ISG cells lay in the range of 50 to 500 nM. Moreover, on human STING protein, the half-maximal inhibitory concentration (IC50) was in the range of 10 to 100 nM.
In turn, `O=C(Nc1cc(OCCCCOc2cc(NC(=O)c3ccc4nnnn4n3)c(C(=O)O)cc2F)ccc1C(=O)O)c1ccc2nnnn2n1` [Compound 1, 4-(4-(4-carboxy-3-(tetrazolo[1,5-b]pyridazine-6-carboxamido)phenoxy)butoxy)-5-fluoro-2-(tetrazolo[1,5-b]pyridazine-6-carboxamido)benzoic acid] came in with a concentration giving a half-maximal response (EC50) with THP-1 Lucia ISG cells of 500 to 5000 nM. Besides, the 50% inhibitory concentration (IC50) at human STING protein was 100 to 1000 nM.
In the test with THP-1 Lucia ISG cells, `CCOC(=O)c1cc(F)c(CCCc2cc(NC(=O)c3ccc(-n4ccnc4)nn3)c(C(=O)O)cc2F)cc1NC(=O)c1ccc(-n2ccnc2)nn1` [Compound 173, 2-(6-(1H-imidazol-1-yl)pyridazine-3-carboxamido)-4-(3-(5-(6-(1H-imidazol-1-yl)pyridazine-3-carboxamido)-4-(ethoxycarbonyl)-2-fluorophenyl)propyl)-5-fluorobenzoic acid] yielded an EC50 of less than 50 nM. The IC50 at human STING protein was 10 to 100 nM.
`O=C(Nc1cc(CCCCc2cc(NC(=O)c3ccc4nnnn4n3)c(C(=O)O)cc2F)c(F)cc1C(=O)O)c1ccc(-n2ccnc2)nn1` [Compound 98]: the EC50 with THP-1 Lucia ISG cells fell in the range of 50 to 500 nM. Besides, the IC50 at human STING protein fell in the range of 10 to 100 nM.
For `O=C(Nc1cc(OCCc2cc(NC(=O)c3ccc(-n4ccnc4)nn3)c(C(=O)O)cc2Cl)c(F)cc1C(=O)O)c1ccc(-n2ccnc2)nn1` [Compound 129] the same measures were 50 to 500 nM and 10 to 100 nM.
`COc1cc(C(=O)O)c(NC(=O)c2ccc3nnnn3n2)cc1CCCc1ccc(C(=O)O)c(NC(=O)c2ccc(-n3ccnc3)nn2)c1` [Compound 86] displayed a half-maximal effective concentration (EC50) with THP-1 Lucia ISG cells of 50 to 500 nM. The half-maximal inhibitory concentration (IC50) at human STING protein fell in the range of 10 to 100 nM.
In the case of `O=C(Nc1cc(F)c(CCCc2cc(C(=O)O)c(NC(=O)c3ccc(-n4ccnc4)nn3)cc2F)cc1C(=O)O)c1ccc(-n2ccnc2)nn1` [Compound 172], the concentration for a half-maximal effect (EC50) with THP-1 Lucia ISG cells was greater than 5000 nM. Besides, on human STING protein, the IC50 lay within 100 to 1000 nM.
In the test on THP-1 Lucia ISG cells, `COc1cc(NC(=O)c2ccc(-n3ccnc3)nn2)c(C(=O)O)cc1CCCc1cc(NC(=O)c2ccc3nnnn3n2)c(C(=O)O)cc1F` [Compound 101] gave a half-maximal effective concentration (EC50) of 50 to 500 nM. Moreover, the IC50 at human STING protein lay in the range of 100 to 1000 nM.
Consider `Cn1nccc1-c1ccc(C(=O)Nc2cc(CCOc3cc(NC(=O)c4ccc(-c5ccnn5C)nn4)c(C(=O)O)cc3F)c(F)cc2C(=O)O)nn1` [Compound 208], for which the half-inhibitory concentration (IC50) at human STING protein was 100 to 1000 nM.
On the same count and under the same terms, the result for `COc1cc(NC(=O)c2ccc(-n3ccnc3)nn2)c(C(=O)O)c(F)c1OCCc1cc(NC(=O)c2ccc(-n3ccnc3)nn2)c(C(=O)O)cc1F` [Compound 189] reads 100 to 1000 nM; that for `CCOC(=O)CCC(=O)c1cc2cc(OCCc3cc(NC(=O)c4ccc5nnnn5n4)c(C(=O)O)cc3F)c(OC)cc2s1` [Compound 122], 100 to 1000 nM; that for `O=C(Nc1cc(OCCCCOc2cnc(C(=O)O)c(NC(=O)c3ccc(-n4ccnc4)nn3)c2)c(F)cc1C(=O)O)c1ccc(-n2ccnc2)nn1` [Compound 69], 100 to 1000 nM.
`NC(=O)c1cc(F)c(CCOc2cc(NC(=O)c3ccc(-n4ccnc4)nn3)c(C(=O)O)cc2F)cc1NC(=O)c1ccc(-n2ccnc2)nn1` [Compound 186]: the half-inhibitory concentration (IC50) on human STING protein was greater than 1000 nM.
